# According to US8591895B2, “Combinations for the treatment of diseases involving cell proliferation” (Boehringer Ingelheim International GmbH, priority 2004, dated 2013):
# Like-named read-outs stand apart in the source and are kept apart here.
# Experiments:
# HCT 116 tumors = assay: HCT 116 colon cancer model combination study: tumor growth of subcutaneous xenografts in nude mice; format: in vivo, human; details: Nr. 46 30 mg/kg i.v., irinotecan 12.5 mg/kg i.p.; for T/C (tumor growth delay): day 39 (end of the controls), once weekly (q7d)x10, alone or combined
# [1] = format: in vivo; details: day 39, Nr. 46 30 mg/kg i.v., irinotecan 12.5 mg/kg i.p., once weekly; for body weight gain: controls gained 10.3%
# [2] = Tolerability (body weight) in NCI-H460 tumor-bearing nude mice; details: 10 animals per group; Docetaxel 15 mg/kg i.v., alone or with Nr. 46 50 mg/kg i.v.
# Text: (§1) The triangles indicate the treatment days.
# NCI-H460 tumors = assay: NCI-H460 lung model combination study: tumor growth of subcutaneous xenografts in nude mice; format: in vivo, human; details: Docetaxel 15 mg/kg i.v.; for T/C (tumor growth delay): day 17 (end of the controls), Nr. 46 50 mg/kg i.v., once weekly (q7d)x4, alone or combined; for delay of the average time to reach 1000 mm^3 in tumor volume compared to the controls: until day 71 (end of the study), weekly treatment until day 25, Nr. 46 50 mg/kg
# Text: as §1
# BxPC-3 tumours = assay: BxPC-3 pancreas model combination study: tumour growth of subcutaneous xenografts in nude mice; format: in vivo, human; details: day 26 (end of the controls); Nr. 46 50 mg/kg i.v., gemcitabine 100 mg/kg i.p., once weekly (q7d)x6, alone or combined
# [3] = for body weight gain: day 26, Nr. 46 50 mg/kg i.v., gemcitabine 100 mg/kg i.p., once weekly, controls gained 6.2%
# Protocol: Suboptimal doses of both compounds were used to facilitate the detection of additive, synergistic or antagonistic effects. Design of the Study • Model: Human adenocarcinoma model BxPC-3 grown as subcutaneous xenografts in nude mice. • Treatment groups (10 animals per group): • Controls Vehicle, i.v., once weekly for 4 weeks ((q7d)×4) • Exemplified compound Nr.
# Tumor volumes and animal weights were recorded 3 times per week. Evaluation of therapy results was based on the absolute volumes of individual tumors.
# Mice were female BomTac:NMRI-nu/nu. […] Gemcitabin infusion concentrate was diluted with 0.9% NaCl and injected intraperitoneally. The administration volume was 10 ml per kg body weight for both compounds. BxPC-3 tumours were established from cultured BxPC-3. Tumour volumes were determined three times a week using a calliper. The weight of mice was determined as an indicator of tolerability on the same days. Plasma samples were taken on the last treatment day.
SMILES,T/C (tumor growth delay) (HCT 116 tumors),tolerability [1],body weight gain [1],mice euthanized due to severe loss of body weight [2],T/C (tumor growth delay) (NCI-H460 tumors),delay of the average time to reach 1000 mm^3 in tumor volume compared to the controls (NCI-H460 tumors),T/C (tumour growth delay) (BxPC-3 tumours),body weight gain [3],"tolerability of higher doses ([3]; mouse, in vivo)","delay of the average time to reach 1000 mm^3 in tumor volume (HCT 116 tumors; day 121 (end of the study), weekly treatment until day 64)"
CCc1c2c(nc3ccc(OC(=O)N4CCC(N5CCCCC5)CC4)cc13)-c1cc3c(c(=O)n1C2)COC(=O)[C@]3(O)CC [irinotecan],25%,well tolerated,5.9%,,,,,,,
CC(=O)O[C@@]12CO[C@@H]1C[C@H](O)[C@@]1(C)C(=O)[C@H](O)C3=C(C)[C@@H](OC(=O)[C@H](O)[C@@H](NC(=O)OC(C)(C)C)c4ccccc4)C[C@@](O)([C@@H](OC(=O)c4ccccc4)[C@H]21)C3(C)C [Docetaxel],,,,one mouse had to be euthanized,42%,10.5 days,,,,
"Nc1ccn([C@@H]2O[C@H](CO)[C@@H](O)C2(F)F)c(=O)n1 [gemcitabine, Gemcitabine]",,,,,,,65%,8.8%,not tolerated,
"CC[C@@H]1C(=O)N(C)c2cnc(Nc3ccc(C(=O)NC4CCN(C)CC4)cc3OC)nc2N1C1CCCC1 [exemplified compound Nr. 46, 4-[[(7R)-8-cyclopentyl-7-ethyl-5,6,7,8-tetrahydro-5-methyl-6-oxo-2-pteridinyl]amino]-3-methoxy-N-(1-methyl-4-piperidinyl)-benzamide]",20%,,8.6%,,65%,4.0 days,28%,8.2%,,33.7 days
